Data taken from publication PMC5411871 (African Journal of Traditional, Complementary, and …, 2016).

Target: T1, Lipoxygenase (type I-B) (Glycine max, UniProt P08170)
T1 sequence (P08170 1-839): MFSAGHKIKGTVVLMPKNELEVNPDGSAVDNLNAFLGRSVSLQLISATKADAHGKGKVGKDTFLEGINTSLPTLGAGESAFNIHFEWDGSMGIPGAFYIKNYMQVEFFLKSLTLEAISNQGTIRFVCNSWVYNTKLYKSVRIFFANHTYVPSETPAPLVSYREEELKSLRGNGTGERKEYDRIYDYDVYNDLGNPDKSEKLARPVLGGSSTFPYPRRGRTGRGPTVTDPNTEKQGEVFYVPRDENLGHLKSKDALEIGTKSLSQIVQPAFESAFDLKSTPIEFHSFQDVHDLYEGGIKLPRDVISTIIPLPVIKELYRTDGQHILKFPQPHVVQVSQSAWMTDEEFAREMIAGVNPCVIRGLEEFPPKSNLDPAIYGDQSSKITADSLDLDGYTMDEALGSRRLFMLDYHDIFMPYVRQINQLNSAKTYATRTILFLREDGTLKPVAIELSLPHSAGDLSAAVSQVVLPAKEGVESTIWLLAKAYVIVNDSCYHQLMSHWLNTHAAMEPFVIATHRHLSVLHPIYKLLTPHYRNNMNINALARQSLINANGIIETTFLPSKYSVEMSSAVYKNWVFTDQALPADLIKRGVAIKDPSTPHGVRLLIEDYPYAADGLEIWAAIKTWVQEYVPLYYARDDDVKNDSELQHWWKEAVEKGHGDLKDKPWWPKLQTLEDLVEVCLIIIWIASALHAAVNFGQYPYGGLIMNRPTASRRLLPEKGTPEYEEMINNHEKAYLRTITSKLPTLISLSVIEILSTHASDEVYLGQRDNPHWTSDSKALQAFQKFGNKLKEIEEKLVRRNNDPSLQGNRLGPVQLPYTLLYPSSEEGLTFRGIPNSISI
Test: absorbance at […] nm, linoleic acid oxidation
Format: biochemical

Row | IC50 [µM] | Compound
1 | 54 | CC1(C)C[C@@H](O)[C@]2(C)CC[C@]3(C)C(=CC[C@@H]4[C@@]5(C)CC[C@H](O)C(C)(C)[C@@H]5CC[C@]43C)[C@@H]2C1 [compound 3, sopharadiol]
2 | 57.3 | C[C@H]1C(=O)CC[C@@H]2[C@]1(C)CC[C@H]1[C@@]2(C)CC[C@@]2(C)[C@@H]3CC(C)(C)CC[C@]3(C)CC[C@]12C [compound 1, friedelin]
